Test results: patent US20090162286A1, “Phosphodiesterase 10 Inhibition as Treatment for Obesity-Related and Metabolic Syndrome-Related Conditions” (Pfizer Inc., priority 2004, published 2009)

Key:
[1] = Obesity Food Intake Model - Fasted-Induced Feeding Assay; assay type: in vivo, rat; conditions: fasted male CD rats; for effect on food intake (fasting-induced refeeding): 10 mg/kg, given 30 minutes prior to return of food, vs vehicle-treated control; for fasting-induced refeeding, dose dependence: Compound IIA 0.1, 1, 10 mg/kg, Compound IIIA 1, 3, 10, 32 mg/kg, comparator rimonabant 3 mg/kg
Experimental: PDE10 inhibitors were also tested for efficacy in reducing the acute re-feeding response following food withdrawal. Male CD rats were fasted overnight. Rats were administered a PDE10 inhibitor (Compound IIA and IIIA in separate tests) 30 minutes prior to the return of food. Food consumption was monitored and weighed at predetermined time points and the effect of PDE10 inhibitors were compared to vehicle-treated control rats.
Compound IIA, Compound IIIA and rimonabant were tested in the fasted-induced feeding assay described above. Compound IIA was tested at 10 mg/kg, 1 mg/kg and 0.1 mg/kg; Compound IIIA was tested at 32 mg/kg, 10 mg/kg, 3 mg/kg and 1 mg/kg; and rimonabant was tested at 3 mg/kg. Both Compound IIA and Compound IIIA were efficacious at 10 mg/kg.

[2] = Body weight and food intake in diet-induced obese (DIO) mice; assay type: in vivo, mouse; conditions: 15 mg/kg twice daily po
Experimental: Mice were individually housed and divided into two groups: a group of control mice which remained on Purina 5001 chow; and another group which was switched to a diet composed of 45 kcal % fat (D12331 Rodent Diet, Research Diets, Inc., New Brunswick, N.J.) for the duration of the 6 week study. Food intake was measured on a 24-hour, 5 days/week cycle (Monday-Friday). Body weight was determined on Day 0 and thereafter at the same time that food intake was measured. For testing the effects of a PDE10 inhibitor on body weight and oxygen consumption, a mouse model of diet-induced obesity (DIO) was used. Obesity was induced in the mice by maintaining them on a 45% fat diet for more than 14 weeks. DIO mice were treated with Compound IVA at a dose of 15 mg/kg, administered twice daily (p.o.) for 14 days. Control mice were administered a vehicle of 0.5% methylcellulose. Measurements were made as previously described. DIO mice were treated with Compound IVA at a dose of 15 mg/kg administered twice daily (po). Control mice were administered the vehicle, 0.5% methylcellulose. […] Oxygen consumption was determined in the Compound IV and vehicle treated mice at the end of the study.

[3] = Oxygen consumption in diet-induced obese (DIO) mice; assay type: in vivo, mouse; conditions: 15 mg/kg twice daily po, at the end of the study, vs vehicle
Experimental: Following determination of body composition, energy expenditure and oxygen consumption were determined using an Oxymax system (Columbus Instruments, Columbus, Ohio). Mice were housed under standard laboratory conditions and maintained on the experimental diet. Mice were acclimated to sealed chambers (8″×4″×5.5″) of the calorimeter (one mouse per chamber). The chambers were placed in activity monitors. The calorimeter was calibrated before each use, airflow was adjusted to 1.6 liters/min, and the system setting and sampling times were set to 60 seconds and 15 seconds, respectively. Oxygen consumption, carbon dioxide production, and ambulatory activity were measured every 10 minutes for a period of 4 hours. For testing the effects of a PDE10 inhibitor on body weight and oxygen consumption, a mouse model of diet-induced obesity (DIO) was used. Obesity was induced in the mice by maintaining them on a 45% fat diet for more than 14 weeks. DIO mice were treated with Compound IVA at a dose of 15 mg/kg, administered twice daily (p.o.) for 14 days. Control mice were administered a vehicle of 0.5% methylcellulose. Measurements were made as previously described. DIO mice were treated with Compound IVA at a dose of 15 mg/kg administered twice daily (po). […] Oxygen consumption was determined in the Compound IV and vehicle treated mice at the end of the study.

COc1cc2ncnc(N3CC[C@@H](Oc4cnc5ccccc5n4)C3)c2cc1OC (stereo in doubt) [Compound IIA, 6,7-Dimethoxy-4-[3-(quinoxalin-2-yloxy)-pyrrolidin-1-yl]-quinazoline]
effect on food intake (fasting-induced refeeding) [1]: efficacious | fasting-induced refeeding, dose dependence [1]: reduce fasting-induced refeeding in the rats in a dose dependent fashion

COc1cc2nc(N3CCNCC3)nc(-c3ccccc3F)c2cc1OC [Compound IIIA, 4-(2-Fluorophenyl)-6,7-dimethoxy-2-piperazin-1-yl-quinazoline]
effect on food intake (fasting-induced refeeding) [1]: efficacious | fasting-induced refeeding, dose dependence [1]: reduce fasting-induced refeeding in the rats in a dose dependent fashion

c1ccc2nc(COc3ccc(-c4[nH]ncc4-c4ccncc4)cc3)ccc2c1 [Compound IVA, 2-[4-(4-Pyridin-4-yl-2H-pyrazol-3-yl)-phenoxymethyl]-quinoline]
body weight change ([2]; 14 days, vs vehicle 0.5% methylcellulose): led to weight loss | onset of weight loss ([2]; apparent on the 4th day): after three days treatment | food intake ([2]; vs vehicle 0.5% methylcellulose): small reduction in food intake | oxygen consumption [3]: slight non-significant increase in oxygen consumption
